Laboratory results: ChEMBL document CHEMBL4619756, “Design, synthesis and biological evaluation of N-hydroxy-aminobenzyloxyarylamide analogues as novel selective κ opioid receptor antagonists” (Bioorg Med Chem Lett, 2020)

How the values were obtained:
[1] = biological target: T1, Delta-type opioid receptor (Homo sapiens, UniProt P41143); assay: Displacement of [3H]-DPDPE from human delta opiod receptor expressed in human HEK293 cells at 10 uM incubated for 60 mins by liquid scintillation counting method relative to control; assay type: cell-based
[2] = biological target: T1, Delta-type opioid receptor; assay: Displacement of [3H]-DPDPE from human delta opiod receptor expressed in human HEK293 cells at 1 uM incubated for 60 mins by liquid scintillation counting method relative to control; assay type: cell-based
[3] = biological target: T2, Kappa-type opioid receptor (Homo sapiens, UniProt P41145); assay: Displacement of [3H]-U69593 from human kappa opiod receptor expressed in CHO cells at 10 uM incubated for 60 mins by liquid scintillation counting method relative to control; assay type: cell-based
Mu-type opioid receptor [4] = biological target: T3, Mu-type opioid receptor (Homo sapiens, UniProt P35372); assay: Displacement of [3H]-DAMGO from human mu opiod receptor expressed in CHO cells at 1 uM incubated for 60 mins by liquid scintillation counting method relative to control; assay type: cell-based
[5] = biological target: T2, Kappa-type opioid receptor; assay: Displacement of [3H]-U69593 from human kappa opiod receptor expressed in CHO cells at 1 uM incubated for 60 mins by liquid scintillation counting method relative to control; assay type: cell-based
Mu-type opioid receptor [6] = biological target: T3, Mu-type opioid receptor; assay: Displacement of [3H]-DAMGO from human mu opiod receptor expressed in CHO cells at 10 uM incubated for 60 mins by liquid scintillation counting method relative to control; assay type: cell-based
Mu-type opioid receptor [7] = biological target: T3, Mu-type opioid receptor; assay: Antagonist activity at human mu opiod receptor expressed in CHO cells assessed as inhibition of DAMGO-induced [35S]GTPgammaS binding incubated for 4 hrs by microbeta liquid scintillation counting method; assay type: functional, cell-based
Homo sapiens [8] = organism: Homo sapiens; assay: Selectivity index, ratio of Ki for human delta opiod receptor expressed […] for human kappa opiod receptor expressed in CHO cells; assay type: cell-based
[9] = biological target: T2, Kappa-type opioid receptor; assay: Displacement of [3H]-U69593 from human kappa opiod receptor expressed in CHO cells incubated for 60 mins by liquid scintillation counting method; assay type: cell-based
Mu-type opioid receptor [10] = biological target: T3, Mu-type opioid receptor; assay: Displacement of [3H]-DAMGO from human mu opiod receptor expressed in CHO cells incubated for 60 mins by liquid scintillation counting method; assay type: cell-based
[11] = biological target: T1, Delta-type opioid receptor; assay: Antagonist activity at human delta opiod receptor expressed in human HEK293 cells assessed as inhibition of DPDPE-induced [35S]GTPgammaS binding incubated for 2 hrs by microbeta liquid scintillation counting method; assay type: functional, cell-based
Homo sapiens [12] = organism: Homo sapiens; assay: Selectivity index, ratio of IC50 for human delta opiod receptor expressed in HEK293 cells to IC50 for human kappa opiod receptor expressed in CHO cells
Homo sapiens [13] = organism: Homo sapiens; assay: Selectivity index, ratio of Ki for human mu opiod receptor expressed in CHO cells to Ki for human kappa opiod receptor expressed in CHO cells; assay type: cell-based
[14] = biological target: T2, Kappa-type opioid receptor; assay: Antagonist activity at human kappa opiod receptor expressed in CHO cells assessed as inhibition of U69593-induced [35S]GTPgammaS binding incubated for 4 hrs by microbeta liquid scintillation counting method; assay type: functional, cell-based
Homo sapiens [15] = organism: Homo sapiens; assay: Selectivity index, ratio of IC50 for human mu opiod receptor expressed in CHO cells to IC50 for human kappa opiod receptor expressed in CHO cells; assay type: cell-based
[16] = biological target: T1, Delta-type opioid receptor; assay: Displacement of [3H]-DPDPE from human delta opiod receptor expressed in human HEK293 cells incubated for 60 mins by liquid scintillation counting method; assay type: cell-based

T1 sequence (P41143 whole entry): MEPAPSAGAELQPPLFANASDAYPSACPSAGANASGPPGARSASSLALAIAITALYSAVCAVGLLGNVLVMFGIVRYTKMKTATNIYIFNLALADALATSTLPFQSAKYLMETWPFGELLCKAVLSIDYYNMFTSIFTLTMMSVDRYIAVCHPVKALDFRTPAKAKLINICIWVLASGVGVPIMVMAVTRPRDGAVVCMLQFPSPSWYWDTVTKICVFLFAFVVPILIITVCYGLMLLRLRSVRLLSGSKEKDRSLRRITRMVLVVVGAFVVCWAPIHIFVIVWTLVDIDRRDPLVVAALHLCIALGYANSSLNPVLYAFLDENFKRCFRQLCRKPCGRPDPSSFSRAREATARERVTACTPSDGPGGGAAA
T3 sequence (P35372 whole entry): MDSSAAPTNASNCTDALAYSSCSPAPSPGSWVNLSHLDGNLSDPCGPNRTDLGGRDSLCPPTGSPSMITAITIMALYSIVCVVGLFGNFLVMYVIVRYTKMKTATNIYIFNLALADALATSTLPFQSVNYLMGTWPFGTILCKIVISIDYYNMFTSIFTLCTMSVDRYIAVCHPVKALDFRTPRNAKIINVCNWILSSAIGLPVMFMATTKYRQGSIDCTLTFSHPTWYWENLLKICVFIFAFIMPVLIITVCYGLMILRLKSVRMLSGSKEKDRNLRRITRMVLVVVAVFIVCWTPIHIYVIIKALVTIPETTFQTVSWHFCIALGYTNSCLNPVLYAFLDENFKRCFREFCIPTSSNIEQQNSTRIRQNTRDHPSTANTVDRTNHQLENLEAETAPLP
T2 sequence (P41145 whole entry): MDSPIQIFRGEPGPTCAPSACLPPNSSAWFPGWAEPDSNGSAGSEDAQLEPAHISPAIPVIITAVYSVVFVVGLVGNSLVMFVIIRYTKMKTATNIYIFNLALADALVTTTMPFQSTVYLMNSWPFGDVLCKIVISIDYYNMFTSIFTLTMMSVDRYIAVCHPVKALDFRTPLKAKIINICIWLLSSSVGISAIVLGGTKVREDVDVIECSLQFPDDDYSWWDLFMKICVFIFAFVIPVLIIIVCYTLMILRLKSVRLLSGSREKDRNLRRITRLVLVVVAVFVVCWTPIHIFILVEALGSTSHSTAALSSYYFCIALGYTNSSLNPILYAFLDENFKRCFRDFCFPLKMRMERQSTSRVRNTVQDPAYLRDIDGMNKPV

inhibition [1]	inhibition [2]	inhibition [3]	inhibition (Mu-type opioid receptor [4])	inhibition [5]	inhibition (Mu-type opioid receptor [6])	IC50 (Mu-type opioid receptor [7])	Ki [9]	Ki (Mu-type opioid receptor [10])	IC50 [11]	IC50 [14]	Ki [16]	SMILES	Ratio Ki (Homo sapiens [8])	Ratio IC50 (Homo sapiens [12])	Ratio Ki (Homo sapiens [13])	Ratio IC50 (Homo sapiens [15])
–	49.5%	–	52.7%	–	87.2%	0.0294 µM	0.014 µM	0.0937 µM	0.109 µM	0.0077 µM	0.105 µM	Cc1cc(C)cc(C2CCCN2Cc2ccc(Oc3ccc(C(N)=O)cc3F)cc2)c1 (racemic)	7.5	14.1	6.7	3.8
16.9%	0%	69.8%	0%	23.8%	9.8%	–	–	–	–	–	–	Cc1cc(C)cc(C2CCCN2Cc2ccc(Oc3ccc4c(=O)[nH]oc4c3)c(Cl)c2)c1 (stereo not given)	–	–	–	–
32.9%	18%	47.4%	21.4%	20.1%	45.7%	–	–	–	–	–	–	Cc1cc(C)cc(C2CCCN2Cc2ccc(Oc3ccc4c(=O)[nH]oc4c3F)c(Cl)c2)c1 (stereo not given)	–	–	–	–
33.3%	0%	36.4%	0%	0%	21.1%	–	–	–	–	–	–	Cc1cc(C)cc(C2CCCN2Cc2ccc(Oc3ccc4c(=O)[nH]oc4c3F)cc2)c1 (stereo not given)	–	–	–	–
15.8%	6.2%	77.4%	11%	34.9%	43.1%	–	–	–	–	–	–	COc1ccc(C2CCCN2Cc2ccc(Oc3ccc(C(=O)NO)cc3F)cc2)cc1 (stereo not given)	–	–	–	–
–	–	80.4%	22.6%	42.5%	64.4%	–	–	–	–	–	–	COc1cccc(C2CCCN2Cc2ccc(Oc3ccc(C(=O)NO)cc3F)cc2)c1 (stereo not given)	–	–	–	–
52.2%	23.9%	0%	21.7%	0%	41.1%	–	–	–	–	–	–	O=c1[nH]oc2c(Cl)c(Oc3ccc(CN4CCCC4c4ccc(Cl)cc4)cc3)ccc12 (stereo not given)	–	–	–	–
28.4%	16.8%	80.6%	25.8%	45.8%	73.2%	–	0.498 µM	2.8 µM	–	–	> 10 µM	O=C(NO)c1ccc(Oc2ccc(CN3CCCC3c3cccc(F)c3)cc2)c(F)c1 (stereo not given)	> 20	–	4.6	–
39.3%	18%	39.9%	17.7%	18.8%	32.2%	–	–	–	–	–	–	COc1ccc(C2CCCN2Cc2ccc(Oc3ccc4c(=O)[nH]oc4c3Cl)cc2)cc1 (stereo not given)	–	–	–	–
44.9%	0%	45.4%	19.2%	0%	32.5%	–	–	–	–	–	–	O=c1[nH]oc2c(Cl)c(Oc3ccc(CN4CCCC4c4cccc(Cl)c4)cc3)ccc12 (stereo not given)	–	–	–	–

Continued, molecule first:

SMILES	inhibition [1]	inhibition [2]	inhibition [3]	inhibition (Mu-type opioid receptor [4])	inhibition [5]	inhibition (Mu-type opioid receptor [6])	IC50 (Mu-type opioid receptor [7])	Ki [9]	Ki (Mu-type opioid receptor [10])	IC50 [11]	IC50 [14]	Ki [16]	Ratio Ki (Homo sapiens [8])	Ratio IC50 (Homo sapiens [12])	Ratio Ki (Homo sapiens [13])	Ratio IC50 (Homo sapiens [15])
O=c1[nH]oc2c(F)c(Oc3ccc(CN4CCCC4c4cccc(F)c4)cc3)ccc12 (stereo not given)	52.5%	20.7%	24.8%	0%	0%	0%	–	–	–	–	–	–	–	–	–	–
COc1cccc(C2CCCN2Cc2ccc(Oc3ccc4c(=O)[nH]oc4c3Cl)cc2)c1 (stereo not given)	60.6%	19.7%	0%	0%	0%	0%	–	–	–	–	–	–	–	–	–	–
Cc1cc(C)cc(C2CCCN2Cc2ccc(Oc3ccc4c(=O)[nH]oc4c3F)c(F)c2)c1 (stereo not given)	49.3%	17.2%	56.9%	9.4%	26.7%	37.3%	–	–	–	–	–	–	–	–	–	–
O=C(NO)c1ccc(Oc2ccc(CN3CCCC3c3ccccc3)cc2)cc1 (stereo not given)	13.8%	0%	85.3%	21.9%	51.6%	45.9%	–	–	–	–	–	–	–	–	–	–
O=C(NO)c1ccc(Oc2ccc(CN3CCCC3c3ccc(Cl)cc3)cc2)c(F)c1 (stereo not given)	34.4%	25.6%	74.3%	0%	46.1%	25.8%	–	–	–	–	–	–	–	–	–	–
COc1ccc(C2CCCN2Cc2ccc(Oc3ccc4c(=O)[nH]oc4c3F)cc2)cc1 (stereo not given)	49.7%	23.7%	19.1%	19.2%	0%	41%	–	–	–	–	–	–	–	–	–	–
COc1cc(CN2CCCC2c2cc(C)cc(C)c2)ccc1Oc1ccc2c(=O)[nH]oc2c1 (stereo not given)	49.1%	11.6%	73.2%	14.3%	38.4%	59.2%	–	–	–	–	–	–	–	–	–	–
O=c1[nH]oc2c(F)c(Oc3ccc(CN4CCCC4c4cccc(Cl)c4)cc3)ccc12 (stereo not given)	38.2%	0%	57.2%	0%	20%	0%	–	–	–	–	–	–	–	–	–	–
Cc1cc(C)cc(C2CCCN2Cc2ccc(Oc3ccc4c(=O)[nH]oc4c3)cc2)c1 (stereo not given)	54.8%	33.9%	91.6%	49.4%	70.6%	74%	–	1.41 µM	1.48 µM	–	–	5.01 µM	3.5	–	1	–
Cc1cc(C)cc(C2CCCN2Cc2ccc(Oc3ccc(C(=O)NO)cc3)cc2)c1 (stereo not given)	6.5%	0%	84.7%	10.7%	39.5%	36%	–	–	–	–	–	–	–	–	–	–
O=c1[nH]oc2c(Cl)c(Oc3ccc(CN4CCCC4c4cccc(F)c4)cc3)ccc12 (stereo not given)	37.9%	8.5%	16.2%	0%	0%	0%	–	–	–	–	–	–	–	–	–	–
O=c1[nH]oc2c(F)c(Oc3ccc(CN4CCCC4c4ccc(Cl)cc4)cc3)ccc12 (stereo not given)	9.6%	0%	39.2%	22.5%	0%	35.8%	–	–	–	–	–	–	–	–	–	–
COc1cccc(C2CCCN2Cc2ccc(Oc3ccc(C(=O)NO)cc3)cc2)c1 (stereo not given)	7.1%	0%	84.3%	13.5%	33.8%	31.6%	–	–	–	–	–	–	–	–	–	–
COc1ccc(C2CCCN2Cc2ccc(Oc3ccc(C(=O)NO)cc3)cc2)cc1 (stereo not given)	24.4%	3.9%	86%	12.8%	52.3%	40.4%	0.202 µM	0.18 µM	2.31 µM	> 5 µM	0.178 µM	> 10 µM	> 55.5	> 28	12.8	1.1
Cc1cc(C)cc(C2CCCN2Cc2ccc(Oc3ccc4c(=O)[nH]oc4c3)c(F)c2)c1 (stereo not given)	10.7%	0%	85.2%	0%	37.2%	9.5%	–	–	–	–	–	–	–	–	–	–
Cc1cc(C)cc(C2CCCN2Cc2ccc(Oc3ccc4c(=O)[nH]oc4c3Cl)cc2)c1 (stereo not given)	22.3%	0%	11.6%	0%	0%	0%	–	–	–	–	–	–	–	–	–	–
COc1ccc(C2CCCN2Cc2ccc(Oc3ccc4c(=O)[nH]oc4c3)cc2)cc1 (stereo not given)	40.7%	33.3%	66.9%	42.2%	55.7%	50.6%	–	–	–	–	–	–	–	–	–	–
O=C(NO)c1ccc(Oc2ccc(CN3CCCC3c3cccc(Cl)c3)cc2)c(F)c1 (stereo not given)	26.4%	0%	54.7%	16.5%	30.9%	57.3%	–	–	–	–	–	–	–	–	–	–
COc1cccc(C2CCCN2Cc2ccc(Oc3ccc4c(=O)[nH]oc4c3F)cc2)c1 (stereo not given)	28.4%	0%	29%	0%	9.7%	6.2%	–	–	–	–	–	–	–	–	–	–
O=c1[nH]oc2cc(Oc3ccc(CN4CCCC4c4ccc(Cl)cc4)cc3)ccc12 (stereo not given)	35.9%	15.7%	83.5%	47%	57.6%	54.5%	–	–	–	–	–	–	–	–	–	–
